Legend:
SARS-CoV-2 3CL^pro [1] = molecular target: T1, SARS-CoV-2 3CL^pro (Severe acute respiratory syndrome coronavirus 2, UniProt P0DTD1); experiment: FRET dose-response 3CL^pro inhibition assay; assay type: biochemical
SARS-CoV-2 3CL^pro [2] = molecular target: T1, SARS-CoV-2 3CL^pro; experiment: Surface plasmon resonance binding to immobilised 3CL^pro
SARS-CoV-2 3CL^pro [3] = molecular target: T1, SARS-CoV-2 3CL^pro; experiment: Initial FRET screening for 3CL^pro inhibition at 10 µM polyphenol; assay type: biochemical; conditions: 0.1 µM 3CL^pro, 16 µM FRET substrate, after 10 min

Structure (SMILES) | IC50 (SARS-CoV-2 3CL^pro [1]) | Kd (SARS-CoV-2 3CL^pro [2]) | SPR binding to immobilised 3CL^pro (in words) (SARS-CoV-2 3CL^pro [2]; SPR, up to 200 µM polyphenol, 25 °C) | inhibition of 3CL^pro (SARS-CoV-2 3CL^pro [3])
O=c1oc2c(O)c(O)cc3c(=O)oc4c(O)c(O)cc1c4c23 [Ellagic acid] | 11.8 µM | 311 ± 69 µM |  | 
Oc1ccc(/C=C/c2cc(O)cc(O)c2)cc1 [Resveratrol] | 16.9 µM |  | non-specific binding | 
COc1cc(C(=O)O)cc(OC)c1O [Syringic acid] |  |  |  | no inhibition at all

Source: article PMC8592230 (Food Chemistry, 2021)
